Data on seven compounds can be found in patent US6492417B1, “11-deoxy-16-fluoro-PGF2α analogs as FP receptor antagonists” (Alcon Manufacturing, Ltd., priority 1997, dated 2002).

The target of experiment [1] is T1, FP receptor (Rattus norvegicus, UniProt P43118).
T1 construct: Two cell lines containing the FP receptor; host or cells: A7r5 rat thoracic aorta smooth muscle cells
The experiment in a line: Schild analysis: antagonism of fluprostenol-induced [3H]IPs production in A7r5 cells (fixed antagonist, varied agonist). The class given is cell-based. The settings on record: for Kb (potency as antagonist of the FP receptor) / Kb: Schild analysis; for Kb: read-out: Kb (potency as antagonist of the FP receptor). As to the method: (§1) Confluent monolayer cultures of cells (in a standard 24-well tissue culture plate) expressing the FP receptor are exposed to [^3H]-myo-inositol (1.5 μCi in a volume of 0.5 ml DMEM culture medium supplemented with 2 mM L-glutamine and 10 μg/ml gentamicin sulfate) in the absence of serum, which causes net incorporation of the radioisotope into the phosphotidylinositol membrane lipids. After 24-32 hrs, the medium with the radioisotope is removed and the cells are rinsed once with DMEM/F-12 medium containing 10 mM LiCl (assay medium). Then 0.5 ml of assay medium is added to each well of cells, followed by addition of varying concentrations of an FP receptor agonist (or other test compound). Cells are exposed to the test agent for 30-120 min in a humidified incubator (95% air/5% CO2), maintained at 37° C. Then the assay medium is removed and 1 ml of 0.1 M formic acid is added to the cell monolayer to inactivate the phospholipase C and to the radiolabelled products into the assay medium. The presence of LiCl during the agonist stimulation period inhibits phosphatases and permits the accumulation of radiolabelled inositol phosphates (IPs) which is measured by ion exchange chromatography.
The agonist-dependent production of IPs, which reflects the degree of receptor activation, is quantitatively measured for each well of cells in the 24-well plate by separating the negatively charged radiolabelled IPs from other minor radiolabelled species and free [^3H]-myo-inositol by anion exchange chromatography. This is accomplished by adding 0.9 ml of the cell lysate obtained as described above to a column packed with 1 ml of AG 1-X8 anion exchange resin in the formate form. The elution and separation of the radiolabelled IPs from the column consists of sequential additions to the column of: 1) 10 ml of water; 2) 8 ml of 50 mM ammonium formate; and 3) 4 ml of 1.2 M ammonium formate solution containing 0.1 M formic acid. The first two washes are discarded, and the third is collected in a scintillation vial, to which is added 15 ml of a water-accepting scintillation fluid. These samples, i.e., the radiolabelled IPs formed by the cells in response to stimulation by an FP prostaglandin receptor agonist or other test agent, is then measured by scintillation spectrometry on a beta-counter.
The dependence of the level of the [^3H]IPs production on agonist concentration is analyzed by standard pharmacological methods to determine the potency (EC50 value) and efficacy (maximum response; Emax) of the FP receptor agonist relative to a standard FP receptor agonist such as fluprostenol. […] The agonist stimulation is then continued for the standard time (30-120 min), after which the procedure for quenching the reaction, separating the [^3H]IPs, and anion exchange chromatography is identical to the procedure described above. A compound is considered to be an antagonist in this protocol if it inhibits the agonist-stimulated [^3H]IPs production relative to the production measured in the control experiment (performed in parallel), in which the solvent is substituted for the antagonist.
Two different antagonist protocols are employed: 1) the antagonist concentration is varied while holding the agonist concentration fixed at a concentration approximately 10 times the agonist EC50 value and 2) the antagonist concentration is fixed in a given experiment, with the agonist concentration varied, and several such experiments, each with a different, fixed antagonist concentration, are performed. […] Overall, the Ki and Kb values are synonymous and represent the antagonist potency of the antagonist at equilibrium.

The test system of experiment [2] is FP receptor. The experiment in a line: Schild analysis: antagonism of agonist-stimulated [3H]IPs production, data from 3T3 and A7r5 cells. In kind it is cell-based, mouse and rat. The settings on record: n=9 experiments using 3T3 and A7r5 cells; read-out: Kb (antagonist potency by Schild analysis). As to the method:
as §1, with “Then the assay medium is removed and 1 ml of 0.1 M formic acid is added to the cell monolayer to inactivate the phospholipase C and to the radiolabelled products into the assay medium.” left out
(§2) The agonist-dependent production of IPs, which reflects the degree of receptor activation, is quantitatively measured for each well of cells in the 24-well plate by separating the negatively charged radiolabelled IPs from other minor radiolabelled species and free [^3H]-myo-inositol by anion exchange chromatography. […]

Experiment [3] concerns the target T1, FP receptor. The experiment in a line: Agonist stimulation of [3H]IPs production in A7r5 cells. The class given is cell-based. As for the experimental part: as §1, with “Then the assay medium is removed and 1 ml of 0.1 M formic acid is added to the cell monolayer to inactivate the phospholipase C and to the radiolabelled products into the assay medium.” left out
as §2

Experiment [4] has as its target FP prostaglandin receptor (Homo sapiens, UniProt P43088). The experiment in a line: Selectivity for FP prostaglandin receptor compared to other classes of prostaglandin receptors.
Experiment [5] has as its target T1, FP receptor. The experiment in a line: Concentration-dependent inhibition of fluprostenol-stimulated [3H]IPs production in A7r5 cells (varied antagonist, fixed agonist). In kind it is cell-based. The settings on record: fluprostenol fixed at approximately 10 times its EC50, n=3, read-out: Ki (antagonist potency by method of FIG. 2). As to the method:
as §1, with “Then the assay medium is removed and 1 ml of 0.1 M formic acid is added to the cell monolayer to inactivate the phospholipase C and to the radiolabelled products into the assay medium.” left out
as §2

Each structure is given as a SMILES string.

T1 sequence (P43118 whole entry): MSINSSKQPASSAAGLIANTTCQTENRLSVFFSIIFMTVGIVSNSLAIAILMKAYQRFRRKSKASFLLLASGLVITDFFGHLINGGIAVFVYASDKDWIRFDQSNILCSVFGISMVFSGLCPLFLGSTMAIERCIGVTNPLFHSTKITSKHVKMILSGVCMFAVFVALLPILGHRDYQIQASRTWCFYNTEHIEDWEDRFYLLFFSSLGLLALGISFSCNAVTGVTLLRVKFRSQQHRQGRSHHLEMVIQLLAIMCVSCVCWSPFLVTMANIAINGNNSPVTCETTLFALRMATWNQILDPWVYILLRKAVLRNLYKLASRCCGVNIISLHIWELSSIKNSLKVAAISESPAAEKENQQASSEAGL
Chain of FP prostaglandin receptor (P43088 whole entry): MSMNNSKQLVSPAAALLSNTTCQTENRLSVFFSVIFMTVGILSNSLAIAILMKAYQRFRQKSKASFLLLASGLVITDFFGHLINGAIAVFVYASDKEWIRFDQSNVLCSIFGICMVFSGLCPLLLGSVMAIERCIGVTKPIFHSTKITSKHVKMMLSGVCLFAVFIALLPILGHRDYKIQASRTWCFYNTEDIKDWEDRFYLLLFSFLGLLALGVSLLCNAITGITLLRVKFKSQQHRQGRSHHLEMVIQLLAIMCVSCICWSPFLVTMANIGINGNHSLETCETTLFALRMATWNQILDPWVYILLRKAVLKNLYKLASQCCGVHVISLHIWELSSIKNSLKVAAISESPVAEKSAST

In the case of `CCCCC[C@H](O)/C=C/[C@@H]1[C@@H](C/C=C\CCCC(=O)N(C)C)[C@@H](O)C[C@H]1O` [PGF2α dimethyl amide], the “Kb (potency as antagonist of the FP receptor)” value in experiment [1] (A7r5 cells) is listed as “Inactive”.

Consider `COc1ccc(Cl)cc1C(=O)NCCc1ccc(S(=O)(=O)NC(=O)NC2CCCCC2)cc1` [Glibenclamide], for which the Kb in experiment [1] (A7r5 cells) came out at 160000 nM.

For `O=C(CCc1ccc(O)cc1)c1c(O)cc(O)cc1O` [Phloretin], the Kb in experiment [1] (A7r5 cells) was 5200 nM.

Regarding `CCCCNC(=O)NS(=O)(=O)c1ccc(C)cc1` [Tolbutamide], the “Kb (potency as antagonist of the FP receptor)” value in experiment [1] (A7r5 cells) was “Inactive”; in experiment [1] (A7r5 cells, listed as tolbutamide), “inactive”.

`CCCCC(F)[C@H](O)/C=C/[C@H]1CC[C@H](O)[C@@H]1C/C=C\CCCC(=O)O` (some centres unmarked) [Compound II]: the Kb in experiment [2] was determined as 132 ± 22 nM; in experiment [1] (A7r5 cells) it was 132 nM. In experiment [1] (A7r5 cells, maximal effects of fluprostenol unaltered, potency reduced), the “Type of antagonism (shift of fluprostenol dose-response curves)” value is reported as “competitive antagonist”. The “Fold higher potency as FP receptor antagonist than phloretin” value in experiment [1] (from Table 1 Kb values) is recorded as “greater than 39 fold”. Besides, the “Agonist classification (maximum effect relative to fluprostenol)” value in experiment [3] is reported as “partial agonist”. Moreover, in experiment [4], the “Selectivity for the FP prostaglandin receptor compared to other classes of prostaglandin receptors” value is “relatively good selectivity”. In addition, the Ki in experiment [5] is 324 ± 49 nM.

As to `CCCCC[C@H](O)/C=C/[C@@H]1[C@@H](C/C=C\CCCCN(C)C)[C@@H](O)C[C@H]1O` [PGF2α dimethyl amine], in experiment [1] (A7r5 cells), the “Kb (potency as antagonist of the FP receptor)” value is recorded as “Inactive”.

For `O=C(O)CCC/C=C\C[C@@H]1[C@@H](/C=C/[C@@H](O)COc2cccc(C(F)(F)F)c2)[C@H](O)C[C@@H]1O` (racemic) [fluprostenol], in experiment [3], the “Agonist classification (maximum effect relative to fluprostenol)” value is given as “full agonist”.

Usually Kb stands for the equilibrium dissociation constant of an antagonist, usually derived from a functional assay. A word on the Ki: it is a dissociation constant, usually derived from enzyme kinetics or from competition with a known ligand.
